pEC50: −log10 of the molar value.
Key:
[1] = tested on: stable HCV 1b RLuc replicon cells (genotype 1b Con1 replicon); assay: HCV genotype 1b RLuc replicon reporter assay; type: cell-based; settings: Hepatitis C virus; stable genotype 1b Con1 RLuc replicon cells, 72 hours
Procedure, shortened: (§1)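 Chimeric replicons for 3a and 4a use a Pi-RLuc reporter and were transiently transfected into Huh-Lunet cells; the 2b chimera (RLuc-Neo) was likewise transient in Huh-Lunet; 1b cells are stable. Cells were exposed to 3-fold serial compound dilutions for 72 h, then lysed. EC50s came from non-linear regression of Renilla luciferase signal.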

[2] = tested on: stable HCV 1a RLuc replicon cells (genotype 1a H77 replicon); assay: HCV genotype 1a RLuc replicon reporter assay; type: cell-based; settings: Hepatitis C virus; stable genotype 1a H77 RLuc replicon cells, 72 hours
[3] = tested on: stable HCV 2a JFH-1 Rluc replicon cells (L31 present in NS5A); assay: HCV genotype 2a JFH-1 RLuc replicon reporter assay; type: cell-based; settings: Hepatitis C virus, 72 h, read-out: 2a JFH (nM)
[4] = tested on: NS5A chimeric genotype 2a JFH-1 replicon with genotype 2a J6 strain NS5A gene (M31); assay: HCV genotype 2a J6 NS5A chimeric replicon assay, transient (t); type: cell-based; settings: Hepatitis C virus, 72 h, read-out: 2a J6 (t) (nM)
[5] = tested on: NS5A chimeric genotype 2a JFH-1 replicon with genotype 2b MD2b-1 strain NS5A gene (M31); assay: HCV genotype 2b NS5A chimeric replicon assay, stable (s); type: cell-based; settings: Hepatitis C virus, 72 h, read-out: 2b (s) (nM)
[6] = tested on: NS5A chimeric genotype 1b Con1 replicon with genotype 3a S52 strain NS5A gene; assay: HCV genotype 3a NS5A chimeric replicon assay; type: cell-based; settings: Hepatitis C virus, 72 h, read-out: 3a (nM)
Procedure, shortened: as §1

[7] = tested on: NS5A chimeric genotype 1b Con1 replicon with genotype 4a ED43 strain NS5A gene; assay: HCV genotype 4a NS5A chimeric replicon assay; type: cell-based; settings: Hepatitis C virus, 72 h, read-out: 4a (s) (nM)
[8] = IV and PO single dose pharmacokinetic studies in SD rats; type: in vivo; settings: Sprague-Dawley, rat, plasma, male SD rats, IV infusion 1 mg/kg, oral gavage 2 mg/kg, read-out: Rat % F
Experimental: IV and PO Single Dose Pharmacokinetic Studies in SD Rats: The pharmacokinetics of selected compounds was characterized in male Sprague-Dawley (SD) rats (250-300 g). In this study, two groups of naïve purebred SD rats (N=3 per group, fasted over night) received the selected compound either as an intravenous (IV) infusion (1 mg/kg over 30 minutes) via the jugular vein or by oral gavage (2 mg/kg). The intravenous (IV) dosing vehicle was 5% ethanol, 35% polyethylene glycol 400 (PEG 400) and 60% water pH 2.0. The oral dosing vehicle was 5% ethanol, 55% PEG 400 and 40% citrate buffer pH 2.2.
Serial blood samples (approximately 0.3 mL each) were collected from jugular vein or other suitable vein at specified time points. For the IV infusion group, the blood samples were collected predose and at 0.25, 0.48, 0.58, 0.75, 1.5, 3, 6, 8, 12 and 24 hours after the start of infusion. For the oral group, the blood samples were collected predose and at 0.25, 0.50, 1, 2, 4, 6, 8, 12 and 24 hours after dosing. The blood samples were collected into Vacutainer™ tubes containing EDTA-K3 as the anti-coagulant and were centrifuged at approximately 4° C. to obtain plasma. The plasma samples were stored at −20° C. until analysis by LC/MS/MS.
A bioanalytical method utilizing high performance liquid chromatography coupled to tandem mass spectrometry (LC/MS/MS) was developed for analysis of the selected compound in rat plasma. Detection was performed using selected reaction monitoring (SRM); Ions representing the precursor (M+H)^+ species was selected in quadrupole 1 (Q1) and collided with argon gas in the collision cell (Q2) to generate specific product ion, which was subsequently monitored by quadrupole 3 (Q3). Standard curve and quality control samples were prepared in male rat plasma and processed in the same way as the test samples to generate quantitative data.
Pharmacokinetic parameters were generated using non-compartmental pharmacokinetic analysis (Phoenix WinNonlin, version 6.3). Values below the lower limit of quantification (LLOQ) were assigned a value of zero if predose and treated as missing thereafter. Area under the curve (AUC) was calculated using the linear trapezoidal rule. The oral bioavailability (% F) was determined by comparison of the area under the curve (AUC) of the compound and/or a metabolite generated in plasma following oral administration to that generated following intravenous administration.

[9] = tested on: NS5A chimeric genotype 2a JFH-1 replicon with genotype 2b MD2b-1 strain NS5A gene (M31); assay: HCV genotype 2b NS5A chimeric replicon assay, transient (t); type: cell-based; settings: Hepatitis C virus, 72 h, read-out: 2b (t) (nM)
Experimental: (§2) Evaluation of cell-based anti-HCV activity: Antiviral potency (EC50) was determined using a Renilla luciferase (RLuc)-based HCV replicon reporter assay. To perform the assay for genotype 1 and 2a JFH-1, stable HCV 1a RLuc replicon cells (harboring a dicistronic genotype 1a H77 replicon that encodes a RLuc reporter), stable HCV lb RLuc replicon cells (harboring a dicistronic genotype 1b Conl replicon that encodes a RLuc reporter), or stable HCV 2a JFH-1 Rluc replicon cells (harboring a dicistronic genotype 2a JFH-1 replicon that encodes a RLuc reporter; with L31 present in NS5A) were dispensed into 384-well plates for EC50 assays. To perform the assay for genotype 2a (with M31 present in NS5A) or 2b, NS5A chimeric genotype 2a JFH-1 replicons that encodes a RLuc-Neo reporter and either genotype 2a J6 strain NS5A gene or genotype 2b MD2b-1 strain NS5A gene (both with M31 present) respectively, were either transiently transfected (t) into Huh-Lunet cells or were established as stably replicating replicon cells (s) is provided. Either cells were dispensed into 384-well plates for EC50 assays. To perform the assay for genotype 3 and 4, NS5A chimeric genotype 1b Conl replicons that encodes a Pi-RLuc reporter and either genotype 3a S52 strain NS5A gene or genotype 4a ED43 strain NS5A gene respectively, were transiently transfected (t) into Huh-Lunet cells, which were subsequently dispensed into 384-well plates. Compounds were dissolved in DMSO at a concentration of 10 mM and diluted in DMSO either manually or using an automated pipeting instrument. Serially 3-fold diluted compounds were either manually mixed with cell culture media and added to the seeded cells or directly added to the cells using an automated instrument. DMSO was used as a negative (solvent; no inhibition) control, and the protease inhibitor ITMN-191 was included at a concentration >100×EC50 as a positive control. 72 hours later, cells were lysed and Renilla luciferase activity quantified as recommended by the manufacturer (Promega-Madison, Wis.). Non-linear regression was performed to calculate EC50 values.

[10] = tested on: L31V/Y93H in genotype 1b NS5A replicon; assay: Resistance mutant replicon assay, genotype 1b NS5A L31V/Y93H; type: cell-based, HCV; settings: Hepatitis C virus, read-out: 1b L31V/Y93H (nM)
Experimental: as §2
(§3) To determine the antiviral potency (EC50) against resistance mutants, resistance mutations, including M28T, Q30R, Q30H, Q30E, L31M, Y93C, Y93H, and Y93N in genotype 1a NS5A, Y93H and L31V/Y93H in genotype 1b NS5A, and Y93H for in genotype 3a NS5A, were introduced individually into either 1a Pi-Rluc or 1b Pi-Rluc replicons by site directed mutagenesis. Replicon RNA of each resistant mutant was transiently transfected into Huh-7-derived cured-51 cells and antiviral potency was determined on these transfected cells as described above.

[11] = tested on: Q30E in genotype 1a NS5A replicon; assay: Resistance mutant replicon assay, genotype 1a NS5A Q30E; type: cell-based, HCV; settings: Hepatitis C virus, read-out: 1a Q30E (nM)
Experimental: as §2, §3

[12] = tested on: Y93H in genotype 1a NS5A replicon; assay: Resistance mutant replicon assay, genotype 1a NS5A Y93H; type: cell-based, HCV; settings: Hepatitis C virus, read-out: 1a Y93H (nM)
Procedure, shortened: (§4)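 Mutant NS5A replicons (1a or 1b Pi-RLuc backbone; 3a NS5A in chimeric 1b) made by site-directed mutagenesis, RNA transiently transfected into Huh-7-derived cured-51 cells. Cells treated with 3-fold serial dilutions for 72 h; Renilla luciferase read; EC50 by non-linear regression.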

[13] = tested on: Y93N in genotype 1a NS5A replicon; assay: Resistance mutant replicon assay, genotype 1a NS5A Y93N; type: cell-based, HCV; settings: Hepatitis C virus, read-out: 1a Y93N (nM)
Procedure, shortened: as §4

[14] = tested on: Y93H in genotype 3a NS5A replicon; assay: Resistance mutant replicon assay, genotype 3a NS5A Y93H; type: cell-based, HCV; settings: Hepatitis C virus, read-out: 3a Y93H (nM)
Procedure, shortened: as §4

Compound | pEC50 [1] | pEC50 [2] | EC50 [3] | EC50 [4] | EC50 [5] | EC50 [6] | EC50 [7] | bioavailability [8] | EC50 [9] | EC50 [10] | EC50 [11] | EC50 [12] | EC50 [13] | EC50 [14]
CC[C@H]1CC[C@@H](c2nc3ccc4cc5c(cc4c3[nH]2)OCc2cc(-c3cnc([C@@H]4CC[C@H](C)N4C(=O)[C@@H](NC(=O)OC)C(C)C)[nH]3)ccc2-5)N1C(=O)[C@@H](NC(=O)OC)[C@H]1CCCOC1 [Example AG, Methyl{(1S)-2-[(2S,5S)-2-ethyl-5-(9-{2-[(2S,5S)-1-{(2S)-2[(methoxycarbonyl)amino]-3-methylbutanoyl}-5-methylpyrrolidin-2-yl]-1H-imidazol-5-yl}-1,11-dihydroisochromeno[4′,3′:6,7]naphtho[1,2-d]imidazol-2-yl)pyrrolidin-1-yl]-2-oxo-1-[(3R)-tetrahydro-2H-pyran-3-yl]ethyl}carbamate] | 10.59 | 10.64 | 0.025 nM | 0.121 nM | 0.092 nM | 0.137 nM | 0.014 nM | 27.8% |  |  |  |  |  | 
COC(=O)N[C@H](C(=O)N1[C@@H](C)CC[C@H]1c1nc2ccc3cc4c(cc3c2[nH]1)OCc1cc(-c2cnc([C@@H]3CC[C@H](C)N3C(=O)[C@@H](NC(=O)OC)C3CCOCC3)[nH]2)ccc1-4)C(C)C [Comp 7, reference compound] | 10.55 | 10.74 | 0.015 nM | 0.035 nM | 0.088 nM | 0.035 nM | 0.019 nM | 10.2% | 0.037 nM |  |  |  |  | 
CC[C@H]1CC[C@@H](c2nc3ccc4cc5c(cc4c3[nH]2)OCc2cc(-c3cnc([C@@H]4CC[C@H](C)N4C(=O)[C@@H](NC(=O)OC)C(C)C)[nH]3)ccc2-5)N1C(=O)[C@@H](NC(=O)OC)C1C[C@@H](C)O[C@H](C)C1 (stereo partly drawn) [Example AC, Methyl {(1S)-1-[(2R,6R)-2,6-dimethyltetrahydro-2H-pyran-4-yl]-2-[(2S,5S)-2-ethyl-5-(9-{2-[(2S,5S)-1-{(2S)-2-[(methoxycarbonyl)amino]-3-methylbutanoyl}-5-methylpyrrolidin-2-yl]-1H-imidazol-5-yl}-1,11-dihydroisochromeno[4′,3′:6,7]naphtho[1,2-d]imidazol-2-yl)pyrrolidin-1-yl]-2-oxoethyl}carbamate] | 10.52 | 10.60 | 0.016 nM | 0.003 nM |  | 0.019 nM | 0.005 nM |  | 0.02 nM | 1.33 nM | 0.312 nM | 0.832 nM | 1.63 nM | 14.5 nM
COC(=O)N[C@H](C(=O)N1[C@@H](C)CC[C@H]1c1ncc(-c2ccc3c(c2)COc2cc4c(ccc5nc([C@@H]6CC[C@H](C)N6C(=O)[C@@H](NC(=O)OC)C6CCOCC6)[nH]c54)cc2-3)[nH]1)C(C)C [Comp 5, reference compound] | 10.54 | 10.66 | 0.013 nM | 0.012 nM | 0.054 nM | 0.041 nM |  | 22% |  |  | 0.297 nM | 0.466 nM |  | 0.549 nM
CC[C@H](C)[C@H](NC(=O)OC)C(=O)N1[C@@H](C)CC[C@H]1c1nc2ccc3cc4c(cc3c2[nH]1)OCc1cc(-c2cnc([C@@H]3CC[C@H](C)N3C(=O)[C@@H](NC(=O)OC)C3C[C@@H](C)O[C@H](C)C3)[nH]2)ccc1-4 (stereo partly drawn) [Example BL, methyl{(2S,3S)-1-[(2S,5S)-2-(9-{2-[(2S,5S)-1-{(2S)-2-[(2R,6R)-2,6-dimethyltetrahydro-2H-pyran-4-yl]-2-[(methoxycarbonyl)amino]acetyl}-5-methylpyrrolidin-2-yl]-1H-imidazol-5-yl}-1,11-dihydroisochromeno[4′,3′:6,7]naphtho[1,2-d]imidazol-2-yl)-5-methylpyrrolidin-1-yl]-3-methyl-1-oxopentan-2-yl}carbamate] | 10.62 | 10.74 | 0.009 nM | 0.022 nM |  | 0.014 nM | 0.006 nM |  | 0.021 nM |  |  | 0.228 nM | 0.531 nM | 1.05 nM
